The values that follow are results of earlier work, collected in US20160253451A1, “METHOD OF USING A WATER-BASED PHARMACOPHORE” (KOREA UNIVERSITY, priority 2013, published 2016).

This data set deals with streptavidin (Streptomyces avidinii, UniProt P22629). Conditions: streptavidin-biotin complex.

Each structure is given as a SMILES string.

streptavidin, sequence (P22629 25-183, species assumed): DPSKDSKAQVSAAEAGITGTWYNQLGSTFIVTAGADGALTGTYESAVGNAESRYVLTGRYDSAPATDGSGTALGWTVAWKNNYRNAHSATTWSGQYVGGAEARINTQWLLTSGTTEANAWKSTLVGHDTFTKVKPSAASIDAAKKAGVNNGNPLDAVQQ

Regarding `O=C(O)CCCC[C@@H]1SC[C@@H]2NC(=O)N[C@@H]21` [biotin], the actual affinity was -18.3 kcal/mol.
